Experimental data as given in US20230136600A1, “Method and device for screening antigen epitope polypeptide” (priority 2020, published 2023).

Tests used:
[1] = test system: Balb/c mice; test: Polypeptide chip-based vaccine immunogenicity scoring system; type: in vivo; design: key to A2: whether the 95 percentile of the last sampling is increased compared with the end point: Y = rise; N = no rise; conditions: for A: 95 percentile grouping number score / B: Mouse performance score: total score = 5
[2] = test system: novel coronavirus (live coronavirus), vero cells; test: In-vitro live virus neutralization experiment with serum of immunized mice (CPE method); type: in vivo, SARS-CoV-2
[3] = Embodiment III, polypeptide-KLH
[4] = Embodiment III, polypeptide-KLH, Mix1-10
[5] = Embodiment III, polypeptide-KLH, value of the whole mix
[6] = adjuvant AddaVax, 7 peptides co-immunized in mice
[7] = adjuvant Adju-Phos, 7 peptides co-immunized in mice
[8] = adjuvant Alhydrogel, 7 peptides co-immunized in mice
[9] = adjuvant Imjet Alumn, 7 peptides co-immunized in mice
[10] = adjuvant MA103A, 7 peptides co-immunized in mice
[11] = adjuvant MA103B, 7 peptides co-immunized in mice

Sequence: SNLKPFER (SARS-CoV-2) [SEQ ID NO:36]
- A2: whether the 95 percentile of the last sampling is increased compared with the end point ([1]; Embodiment II, Combination 2): Y
- B1: D 0-D 14 95 percentile rise in the number of mice ([1]; Embodiment II, Combination 2): 5
- B2: D 0-D 21 95 percentile rise in the number of mice ([1]; Embodiment II, Combination 2): 5
- B3: D 14-D 21 95 percentile rise in the number of mice ([1]; Embodiment II, Combination 2): 0
- B4: D 21-D 28 95 percentile rise in the number of mice ([1]; Embodiment II, Combination 2): 2
- Total single peptide ([1]; Embodiment II, Combination 2, A*3 + B*2 + C*1): 11.8
- A: 95 percentile grouping number score ([1]; Embodiment II, Combination 2): 1.5
- B: Mouse performance score ([1]; Embodiment II, Combination 2): 3.4
- A1: difference between a highest median and a D 0 median (95 percentile) ([1]; Embodiment II, mice immunized with Combination 2): 0.1
- B1: D 0-D 14 95 percentile rise in the number of mice [1, 3]: 3
- B2: D 0-D 21 95 percentile rise in the number of mice [1, 3]: 2
- B3: D 14-D 21 95 percentile rise in the number of mice [1, 3]: 0
- B4: D 21-D 28 95 percentile rise in the number of mice [1, 3]: 2
- A1: difference between a highest median and a D 0 median (95 percentile) [1, 4]: 0.10
- A2: whether the 95 percentile of the last sampling is increased compared with the end point [1, 4]: Y
- Total single peptide ([1]; Embodiment III, polypeptide-KLH, A*3 + B*2 + C*1): 17.4
- A: 95 percentile grouping number score [1, 3]: 4.5
- B: Mouse performance score [1, 3]: 1.7
- C1: #A timing-sequence response peptide fragment set [1, 5]: 511
- C2: #B vaccine specificity peptide fragment set [1, 5]: 364
- C3: Intersection of A and B [1, 5]: 1
- C4: Percentage of the intersection in set B [1, 5]: 0.275
- C: Timing-sequence response and specificity score [1, 5]: 0.5
- 1) 95 percentile grouping number A [1, 6]: 3.5
- 1) 95 percentile grouping number A1 [1, 6]: 0.04
- 2) Mouse performance B [1, 6]: 2.5
- 2) Mouse performance B1 [1, 6]: 3
- 2) Mouse performance B2 [1, 6]: 4
- 2) Mouse performance B3 [1, 6]: 2
- 3) Timing-sequence response and specificity C [1, 6]: 0
- 3) Timing-sequence response and specificity C1 [1, 6]: 237
- 3) Timing-sequence response and specificity C2 [1, 6]: 1244
- 3) Timing-sequence response and specificity C3 [1, 6]: 0
- 3) Timing-sequence response and specificity C4 [1, 6]: 0.000
- Total single peptide [1, 6]: 15.5
- 1) 95 percentile grouping number A [1, 7]: 3.5
- 1) 95 percentile grouping number A1 [1, 7]: 0.05
- 2) Mouse performance B [1, 7]: 1.8
- 2) Mouse performance B1 [1, 7]: 2
- 2) Mouse performance B2 [1, 7]: 2
- 2) Mouse performance B3 [1, 7]: 2
- 3) Timing-sequence response and specificity C [1, 7]: 0
- 3) Timing-sequence response and specificity C1 [1, 7]: 203
- 3) Timing-sequence response and specificity C2 [1, 7]: 1244
- 3) Timing-sequence response and specificity C3 [1, 7]: 0
- 3) Timing-sequence response and specificity C4 [1, 7]: 0.000
- Total single peptide [1, 7]: 14.1
- 1) 95 percentile grouping number A [1, 8]: 0
- 1) 95 percentile grouping number A1 [1, 8]: 0
- 2) Mouse performance B [1, 8]: 1.9
- 2) Mouse performance B1 [1, 8]: 3
- 2) Mouse performance B2 [1, 8]: 1
- 2) Mouse performance B3 [1, 8]: 2
- 3) Timing-sequence response and specificity C [1, 8]: 1
- 3) Timing-sequence response and specificity C1 [1, 8]: 123
- 3) Timing-sequence response and specificity C2 [1, 8]: 1244
- 3) Timing-sequence response and specificity C3 [1, 8]: 2
- 3) Timing-sequence response and specificity C4 [1, 8]: 0.161
- Total single peptide [1, 8]: 4.3
- 1) 95 percentile grouping number A [1, 9]: 4.5
- 1) 95 percentile grouping number A1 [1, 9]: 0.065
- 2) Mouse performance B [1, 9]: 2.5
- 2) Mouse performance B1 [1, 9]: 5
- 2) Mouse performance B2 [1, 9]: 3
- 2) Mouse performance B3 [1, 9]: 1
- 3) Timing-sequence response and specificity C [1, 9]: 1
- 3) Timing-sequence response and specificity C1 [1, 9]: 100
- 3) Timing-sequence response and specificity C2 [1, 9]: 1244
- 3) Timing-sequence response and specificity C3 [1, 9]: 3
- 3) Timing-sequence response and specificity C4 [1, 9]: 0.241
- Total single peptide [1, 9]: 19
- 1) 95 percentile grouping number A [1, 10]: 4.5
- 1) 95 percentile grouping number A1 [1, 10]: 0.065
- 2) Mouse performance B [1, 10]: 2.4
- 2) Mouse performance B1 [1, 10]: 4
- 2) Mouse performance B2 [1, 10]: 4
- 2) Mouse performance B3 [1, 10]: 1
- 3) Timing-sequence response and specificity C [1, 10]: 1
- 3) Timing-sequence response and specificity C1 [1, 10]: 260
- 3) Timing-sequence response and specificity C2 [1, 10]: 1244
- 3) Timing-sequence response and specificity C3 [1, 10]: 3
- 3) Timing-sequence response and specificity C4 [1, 10]: 0.241
- Total single peptide [1, 10]: 18.8
- 1) 95 percentile grouping number A [1, 11]: 5
- 1) 95 percentile grouping number A1 [1, 11]: 0.06
- 2) Mouse performance B [1, 11]: 3.2
- 2) Mouse performance B1 [1, 11]: 4
- 2) Mouse performance B2 [1, 11]: 4
- 2) Mouse performance B3 [1, 11]: 3
- 3) Timing-sequence response and specificity C [1, 11]: 0
- 3) Timing-sequence response and specificity C1 [1, 11]: 153
- 3) Timing-sequence response and specificity C2 [1, 11]: 1244
- 3) Timing-sequence response and specificity C3 [1, 11]: 0
- 3) Timing-sequence response and specificity C4 [1, 11]: 0.000
- Total single peptide [1, 11]: 21.4
- Neutralizing antibody positive rate (%) ([2]; Embodiment I: single peptide 100 μg + MF59 at Day 0, 14, 28, Balb/c mice, serum Day 35): 40%
- Neutralizing activity of serum to the novel coronavirus (in words) ([2]; Embodiment I: single peptide vaccines + MF59): optimal neutralization effect
